# In US11738037B2, “Agent for preventing or improving decline in brain function” (KYOWA HAKKO BIO CO., LTD., priority 2012, dated 2023):
# Experiments:
# Assay type in all cases: in vivo, C57BL/6J mice
# [1] = system: bilateral common carotid arteries occlusion mice; assay: Novel object recognition test; conditions: oral, after 7 days of administration, novel vs familiar object, FIG. 3
# Method: (§1) Experimental Example: 10-week-old male C57BL/6J mice (CLEA Japan, Inc. approximately 25 g of average body weight per mouse) were preliminarily acclimated for 1 week, and provided for experiments. L-citrulline and citicoline were obtained from KYOWA HAKKO BIO CO., LTD.
# (§2) C57BL/6J mice were divided into a sham-operation group (Group 1) and a bilateral common carotid arteries occlusion group, which was performed under halothane anesthesia for 20 minutes. One day after reperfusion, the bilateral common carotid arteries occlusion group was further divided into a distilled water-treated group (Group 2), a low-dose L-citrulline-treated group (40 mg/kg: Group 3), a low-dose citicoline-treated group (40 mg/kg: Group 4), a high-dose L-citrulline-treated group (100 mg/kg: Group 5), a high-dose citicoline-treated group (100 mg/kg: Group 6), and a combination treatment group of a low dose of L-citrulline and a low dose of citicoline (each 40 mg/kg: Group 7). […] After evaluating learning memory functions, the hippocampus was removed and viability of hippocampal nerve cells was evaluated.
# The novel object recognition test was performed after mice were individually acclimated to the open field apparatus (35×25×35 cm) for 2 days. […] A ratio of the frequency of exploring the familiar or novel object over the total exploration frequency was calculated, and used as an index for visual recognition memory.
# [2] = system: hippocampal nerve cells (CA1 pyramidal cell layer); assay: Evaluation of viability of hippocampal nerve cells; conditions: oral for 12 days, compared to Group 2, FIG. 4
# Method: as §1
# (§3) C57BL/6J mice were divided into a sham-operation group (Group 1) and a bilateral common carotid arteries occlusion group, which was performed under halothane anesthesia for 20 minutes. […] After evaluating learning memory functions, the hippocampus was removed and viability of hippocampal nerve cells was evaluated.
# Twelve days after bilateral occlusion of the common carotid arteries, mice were anesthetized with pentobarbital sodium, and perfused with ice-cold phosphate buffer (PBS, pH 7.4) until the blood in the body was completely removed. […] Surviving and non-surviving nerve cells in the CA1 pyramidal cell layer of the hippocampus were counted at 1.4 to 1.8 mm posterior to bregma, and cells with PI-positive nuclei and typical morphological characteristics were defined as surviving nerve cells. The cell viability was calculated from a ratio to the average number of surviving nerve cells in Group 1.
# [3] = system: bilateral common carotid arteries occlusion mice; assay: Passive avoidance test; conditions: oral, after 7 days of administration, compared to Group 2, FIG. 2
# Method: as §1, §3
# The passive avoidance test was performed using a box consisting of dark (25×25×25 cm) and light compartments (14×10×25 cm) and being equipped with an electrical stimulation apparatus at the bottom of the dark compartment. […] Twenty four hours after training, the mouse was placed again in the light compartment, and the latency time spent in the light compartment was recorded with a maximum latency of 300 seconds.
# [4] = system: bilateral common carotid arteries occlusion mice; assay: Y-maze test (spontaneous alternation behavior); conditions: oral, after 7 days of administration, FIG. 1
# Method: as §1
# as §2, with “7). Each sample was orally administered for 12 days.” for “7).”
# In the Y-maze test, a Y-maze apparatus with three arms (50×16×32 cm) was used. […] The sequence of arm entries was recorded. The number of entries into each arm was counted during the measurement time, which was defined as the total number of entries. […]
smiles,measurement,setting,value
NC(=O)NCCC[C@H](N)C(=O)O [L-citrulline],frequency of exploring the novel object,[1]; high dose 100 mg/kg,remarkably improved effect of memory behavior
same,frequency of exploring the novel object,[1]; low dose 40 mg/kg,frequency of exploring the novel object cannot be increased
same,viability of hippocampal nerve cells,[2]; high dose 100 mg/kg,nerve cell-protecting effect
same,viability of hippocampal nerve cells,[2]; low dose 40 mg/kg,viability of hippocampal nerve cells cannot be improved
same,time spent in the light compartment (Latency time),[3]; high dose 100 mg/kg,improved effect of memory behavior
same,time spent in the light compartment (Latency time),[3]; low dose 40 mg/kg,latency time cannot be improved
same,spontaneous alternation behavior rate (Alternation),"[4]; high dose 100 mg/kg, compared to Group 2",improved effect of memory behavior
same,spontaneous alternation behavior rate (Alternation),"[4]; low dose 40 mg/kg, compared to distilled water-treated occlusion group (Group 2)",Alternation cannot be improved
